In article PMC9927415, “Tyrosine Kinase Inhibitors Display Potent Activity against Cryptosporidium parvum” (Microbiology Spectrum, 2022):

Experiments:
Assay in all cases: KINOMEscan competitive binding
[1] = molecular target: T1, PAK4 (Homo sapiens, UniProt O96013); settings: n=1, read-out: Percent inhibition, PAK4
T1 construct: purchased DiscoverX (KINOMEscan)

[2] = molecular target: T2, PDPK1 (Homo sapiens, UniProt O15530); settings: n=1, read-out: Percent inhibition, PDPK1
T2 construct: purchased DiscoverX (KINOMEscan)
T2 sequence (O15530 1-556): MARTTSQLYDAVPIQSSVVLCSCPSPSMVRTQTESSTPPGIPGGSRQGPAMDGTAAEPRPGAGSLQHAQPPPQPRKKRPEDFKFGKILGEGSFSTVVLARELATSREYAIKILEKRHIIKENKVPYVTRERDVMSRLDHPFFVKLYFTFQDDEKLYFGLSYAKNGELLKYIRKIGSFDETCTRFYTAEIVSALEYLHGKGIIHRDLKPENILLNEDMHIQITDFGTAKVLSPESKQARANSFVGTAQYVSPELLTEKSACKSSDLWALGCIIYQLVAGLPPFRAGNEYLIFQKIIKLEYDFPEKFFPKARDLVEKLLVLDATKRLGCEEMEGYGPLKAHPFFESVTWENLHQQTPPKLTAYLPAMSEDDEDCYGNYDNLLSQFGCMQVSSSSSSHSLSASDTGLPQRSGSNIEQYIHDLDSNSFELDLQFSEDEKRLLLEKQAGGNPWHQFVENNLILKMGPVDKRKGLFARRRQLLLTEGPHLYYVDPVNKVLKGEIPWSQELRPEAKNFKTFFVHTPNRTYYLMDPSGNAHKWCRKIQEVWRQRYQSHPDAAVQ

[3] = molecular target: T3, PRKCH (Homo sapiens, UniProt P24723); settings: n=1, read-out: Percent inhibition, PRKCH
T3 construct: purchased DiscoverX (KINOMEscan)

[4] = molecular target: T4, SLK (Homo sapiens, UniProt Q9H2G2); settings: n=1, read-out: Percent inhibition, SLK
T4 construct: purchased DiscoverX (KINOMEscan)

[5] = molecular target: T5, SNF1LK2 (Homo sapiens, UniProt Q9H0K1); settings: n=1, read-out: Percent inhibition, SNF1LK2
T5 construct: purchased DiscoverX (KINOMEscan)

[6] = molecular target: T6, STK16 (Homo sapiens, UniProt O75716); settings: n=1, read-out: Percent inhibition, STK16
T6 construct: purchased DiscoverX (KINOMEscan)

[7] = molecular target: T7, STK33 (Homo sapiens, UniProt Q9BYT3); settings: n=1, read-out: Percent inhibition, STK33
T7 construct: purchased DiscoverX (KINOMEscan)

[8] = molecular target: T8, SYK (Homo sapiens, UniProt P43405); settings: n=1, read-out: Percent inhibition, SYK
T8 construct: purchased DiscoverX (KINOMEscan)

[9] = molecular target: T9, TLK1 (Homo sapiens, UniProt Q9UKI8); settings: n=1, read-out: Percent inhibition, TLK1
T9 construct: purchased DiscoverX (KINOMEscan)
T9 sequence (Q9UKI8 1-766): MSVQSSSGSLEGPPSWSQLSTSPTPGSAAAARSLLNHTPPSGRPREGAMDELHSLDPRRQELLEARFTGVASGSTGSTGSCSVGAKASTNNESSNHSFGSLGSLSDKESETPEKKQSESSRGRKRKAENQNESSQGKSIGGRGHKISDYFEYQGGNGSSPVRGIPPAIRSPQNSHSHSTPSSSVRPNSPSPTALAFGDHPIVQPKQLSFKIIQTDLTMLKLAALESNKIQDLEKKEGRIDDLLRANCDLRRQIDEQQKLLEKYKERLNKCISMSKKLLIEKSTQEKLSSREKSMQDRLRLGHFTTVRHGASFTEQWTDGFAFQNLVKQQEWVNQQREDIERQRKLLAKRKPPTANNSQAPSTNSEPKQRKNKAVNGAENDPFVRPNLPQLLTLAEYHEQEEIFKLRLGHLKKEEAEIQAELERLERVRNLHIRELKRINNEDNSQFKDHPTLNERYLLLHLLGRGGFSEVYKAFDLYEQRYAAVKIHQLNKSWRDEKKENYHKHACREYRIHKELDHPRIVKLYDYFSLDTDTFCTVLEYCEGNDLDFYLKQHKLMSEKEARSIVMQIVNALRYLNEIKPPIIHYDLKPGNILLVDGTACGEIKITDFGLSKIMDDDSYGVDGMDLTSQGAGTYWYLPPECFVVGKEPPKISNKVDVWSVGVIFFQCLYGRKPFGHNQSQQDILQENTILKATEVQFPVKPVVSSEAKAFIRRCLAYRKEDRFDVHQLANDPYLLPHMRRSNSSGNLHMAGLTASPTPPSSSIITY

[10] = molecular target: T10, TLK2 (Homo sapiens, UniProt Q86UE8); settings: n=1, read-out: Percent inhibition, TLK2
T10 construct: purchased DiscoverX (KINOMEscan)

[11] = molecular target: T11, TRKC (Homo sapiens, UniProt Q16288); settings: n=1, read-out: Percent inhibition, TRKC
T11 construct: purchased DiscoverX (KINOMEscan)

[12] = molecular target: T12, YANK3 (Homo sapiens, UniProt Q86UX6); settings: n=1, read-out: Percent inhibition, YANK3
T12 construct: purchased DiscoverX (KINOMEscan)

[13] = molecular target: T13, YES (Homo sapiens, UniProt P07947); settings: n=1, read-out: Percent inhibition, YES
T13 construct: purchased DiscoverX (KINOMEscan)

[14] = molecular target: T14, ZAP70 (Homo sapiens, UniProt P43403); settings: n=1, read-out: Percent inhibition, ZAP70
T14 construct: purchased DiscoverX (KINOMEscan)
T14 sequence (P43403 1-619): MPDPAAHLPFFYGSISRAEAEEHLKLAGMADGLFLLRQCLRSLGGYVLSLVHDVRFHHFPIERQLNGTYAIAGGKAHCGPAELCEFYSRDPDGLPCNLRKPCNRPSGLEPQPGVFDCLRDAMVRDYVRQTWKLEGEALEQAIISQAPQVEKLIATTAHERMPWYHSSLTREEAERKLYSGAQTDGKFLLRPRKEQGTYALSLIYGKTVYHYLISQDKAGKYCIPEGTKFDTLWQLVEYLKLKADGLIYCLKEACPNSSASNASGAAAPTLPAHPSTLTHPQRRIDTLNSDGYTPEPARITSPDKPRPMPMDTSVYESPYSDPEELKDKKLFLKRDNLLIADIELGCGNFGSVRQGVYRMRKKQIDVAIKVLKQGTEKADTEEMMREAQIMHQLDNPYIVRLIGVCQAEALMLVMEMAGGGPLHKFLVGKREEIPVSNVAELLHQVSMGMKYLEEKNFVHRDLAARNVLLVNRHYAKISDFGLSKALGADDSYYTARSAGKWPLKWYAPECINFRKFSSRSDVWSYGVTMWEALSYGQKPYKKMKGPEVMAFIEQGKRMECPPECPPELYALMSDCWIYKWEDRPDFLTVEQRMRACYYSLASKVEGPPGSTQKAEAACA

T7 sequence (Q9BYT3 whole entry): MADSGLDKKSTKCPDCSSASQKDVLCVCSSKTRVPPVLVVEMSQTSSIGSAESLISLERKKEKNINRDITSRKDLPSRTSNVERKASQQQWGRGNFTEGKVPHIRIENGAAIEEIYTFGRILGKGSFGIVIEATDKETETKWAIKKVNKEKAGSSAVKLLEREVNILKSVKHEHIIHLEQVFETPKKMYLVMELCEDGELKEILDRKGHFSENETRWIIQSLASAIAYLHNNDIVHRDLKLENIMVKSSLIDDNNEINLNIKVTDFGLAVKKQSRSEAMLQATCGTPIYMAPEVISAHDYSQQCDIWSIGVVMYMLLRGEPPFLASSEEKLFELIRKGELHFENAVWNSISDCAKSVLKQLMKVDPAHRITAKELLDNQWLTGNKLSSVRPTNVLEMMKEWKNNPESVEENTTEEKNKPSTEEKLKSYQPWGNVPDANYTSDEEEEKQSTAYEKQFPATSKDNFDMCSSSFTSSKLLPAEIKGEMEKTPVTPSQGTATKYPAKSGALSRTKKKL
T10 sequence (Q86UE8 whole entry): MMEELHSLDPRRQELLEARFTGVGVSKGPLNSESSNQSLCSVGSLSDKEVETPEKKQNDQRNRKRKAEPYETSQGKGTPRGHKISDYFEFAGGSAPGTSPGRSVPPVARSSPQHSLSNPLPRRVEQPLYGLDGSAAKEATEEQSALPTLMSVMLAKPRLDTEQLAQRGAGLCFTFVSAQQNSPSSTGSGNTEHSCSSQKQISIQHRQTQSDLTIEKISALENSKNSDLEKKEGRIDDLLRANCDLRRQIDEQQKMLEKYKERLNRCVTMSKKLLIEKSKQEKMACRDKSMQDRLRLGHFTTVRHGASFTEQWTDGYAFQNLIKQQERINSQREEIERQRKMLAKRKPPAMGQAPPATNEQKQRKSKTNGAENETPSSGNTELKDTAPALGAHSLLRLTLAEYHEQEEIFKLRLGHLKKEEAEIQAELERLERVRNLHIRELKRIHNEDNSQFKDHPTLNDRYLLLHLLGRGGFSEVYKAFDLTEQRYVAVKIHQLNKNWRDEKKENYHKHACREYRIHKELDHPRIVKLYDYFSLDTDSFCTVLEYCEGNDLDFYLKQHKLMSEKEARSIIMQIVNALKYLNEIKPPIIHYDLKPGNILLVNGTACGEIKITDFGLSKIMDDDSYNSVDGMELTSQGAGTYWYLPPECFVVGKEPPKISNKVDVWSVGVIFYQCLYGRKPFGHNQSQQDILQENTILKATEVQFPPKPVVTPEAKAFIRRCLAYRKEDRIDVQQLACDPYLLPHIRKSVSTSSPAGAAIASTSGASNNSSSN
T1 sequence (O96013 whole entry): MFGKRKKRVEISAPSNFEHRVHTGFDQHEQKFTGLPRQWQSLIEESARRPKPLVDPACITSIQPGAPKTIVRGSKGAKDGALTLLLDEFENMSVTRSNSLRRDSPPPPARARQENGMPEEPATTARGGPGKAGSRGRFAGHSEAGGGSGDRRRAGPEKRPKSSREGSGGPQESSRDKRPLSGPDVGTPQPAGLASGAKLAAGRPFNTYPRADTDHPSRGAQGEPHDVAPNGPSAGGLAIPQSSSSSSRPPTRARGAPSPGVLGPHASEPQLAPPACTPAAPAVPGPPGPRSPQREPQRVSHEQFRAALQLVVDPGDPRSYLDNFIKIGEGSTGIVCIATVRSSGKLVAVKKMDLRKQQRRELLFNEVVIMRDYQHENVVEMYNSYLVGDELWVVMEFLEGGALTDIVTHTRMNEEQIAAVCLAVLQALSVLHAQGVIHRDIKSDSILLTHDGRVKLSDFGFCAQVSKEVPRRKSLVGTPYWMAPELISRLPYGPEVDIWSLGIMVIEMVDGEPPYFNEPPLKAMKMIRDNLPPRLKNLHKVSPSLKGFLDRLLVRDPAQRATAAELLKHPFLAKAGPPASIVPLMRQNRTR
T6 sequence (O75716 whole entry): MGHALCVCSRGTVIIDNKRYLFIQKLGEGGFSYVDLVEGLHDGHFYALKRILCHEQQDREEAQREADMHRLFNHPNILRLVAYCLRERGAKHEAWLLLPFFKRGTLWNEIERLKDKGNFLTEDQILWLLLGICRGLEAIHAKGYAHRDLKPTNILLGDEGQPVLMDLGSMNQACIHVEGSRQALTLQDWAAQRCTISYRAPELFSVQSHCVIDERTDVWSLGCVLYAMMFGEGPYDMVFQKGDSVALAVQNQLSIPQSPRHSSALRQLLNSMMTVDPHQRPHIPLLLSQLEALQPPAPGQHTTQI
T12 sequence (Q86UX6 whole entry): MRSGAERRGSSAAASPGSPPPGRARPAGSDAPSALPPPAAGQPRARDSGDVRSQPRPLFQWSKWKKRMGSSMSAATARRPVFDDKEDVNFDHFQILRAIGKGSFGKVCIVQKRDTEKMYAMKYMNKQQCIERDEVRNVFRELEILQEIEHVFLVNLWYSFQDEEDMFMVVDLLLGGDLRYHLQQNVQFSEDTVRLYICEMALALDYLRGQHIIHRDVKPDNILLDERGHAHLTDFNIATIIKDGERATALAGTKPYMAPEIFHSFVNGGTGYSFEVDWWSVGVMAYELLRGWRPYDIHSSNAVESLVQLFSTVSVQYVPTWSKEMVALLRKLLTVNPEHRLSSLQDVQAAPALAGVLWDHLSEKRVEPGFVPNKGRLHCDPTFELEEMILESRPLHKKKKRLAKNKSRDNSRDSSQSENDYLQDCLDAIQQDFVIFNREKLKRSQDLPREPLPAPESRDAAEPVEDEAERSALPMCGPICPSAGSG
T11 sequence (Q16288 32-839): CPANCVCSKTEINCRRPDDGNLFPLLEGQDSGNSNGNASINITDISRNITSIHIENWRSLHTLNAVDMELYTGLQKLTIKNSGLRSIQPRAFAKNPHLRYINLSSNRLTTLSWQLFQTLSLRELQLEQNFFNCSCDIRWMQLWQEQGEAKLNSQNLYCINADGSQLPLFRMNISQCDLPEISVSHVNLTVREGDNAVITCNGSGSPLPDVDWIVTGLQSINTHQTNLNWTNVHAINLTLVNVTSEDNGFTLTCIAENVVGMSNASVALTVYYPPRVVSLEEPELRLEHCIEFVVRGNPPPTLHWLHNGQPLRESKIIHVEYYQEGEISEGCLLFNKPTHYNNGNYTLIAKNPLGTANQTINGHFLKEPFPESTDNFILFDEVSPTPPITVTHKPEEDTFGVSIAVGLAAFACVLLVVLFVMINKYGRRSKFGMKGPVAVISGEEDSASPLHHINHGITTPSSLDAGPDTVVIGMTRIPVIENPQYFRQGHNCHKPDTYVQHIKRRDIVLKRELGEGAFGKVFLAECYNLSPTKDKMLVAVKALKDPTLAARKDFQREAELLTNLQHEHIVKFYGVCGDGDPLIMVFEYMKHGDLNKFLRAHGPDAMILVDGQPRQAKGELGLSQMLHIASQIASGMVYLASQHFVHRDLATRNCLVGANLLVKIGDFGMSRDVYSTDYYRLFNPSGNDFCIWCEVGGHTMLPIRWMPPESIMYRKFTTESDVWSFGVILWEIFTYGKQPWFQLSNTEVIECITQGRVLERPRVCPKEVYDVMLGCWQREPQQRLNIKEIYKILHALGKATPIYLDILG
T5 sequence (Q9H0K1 whole entry): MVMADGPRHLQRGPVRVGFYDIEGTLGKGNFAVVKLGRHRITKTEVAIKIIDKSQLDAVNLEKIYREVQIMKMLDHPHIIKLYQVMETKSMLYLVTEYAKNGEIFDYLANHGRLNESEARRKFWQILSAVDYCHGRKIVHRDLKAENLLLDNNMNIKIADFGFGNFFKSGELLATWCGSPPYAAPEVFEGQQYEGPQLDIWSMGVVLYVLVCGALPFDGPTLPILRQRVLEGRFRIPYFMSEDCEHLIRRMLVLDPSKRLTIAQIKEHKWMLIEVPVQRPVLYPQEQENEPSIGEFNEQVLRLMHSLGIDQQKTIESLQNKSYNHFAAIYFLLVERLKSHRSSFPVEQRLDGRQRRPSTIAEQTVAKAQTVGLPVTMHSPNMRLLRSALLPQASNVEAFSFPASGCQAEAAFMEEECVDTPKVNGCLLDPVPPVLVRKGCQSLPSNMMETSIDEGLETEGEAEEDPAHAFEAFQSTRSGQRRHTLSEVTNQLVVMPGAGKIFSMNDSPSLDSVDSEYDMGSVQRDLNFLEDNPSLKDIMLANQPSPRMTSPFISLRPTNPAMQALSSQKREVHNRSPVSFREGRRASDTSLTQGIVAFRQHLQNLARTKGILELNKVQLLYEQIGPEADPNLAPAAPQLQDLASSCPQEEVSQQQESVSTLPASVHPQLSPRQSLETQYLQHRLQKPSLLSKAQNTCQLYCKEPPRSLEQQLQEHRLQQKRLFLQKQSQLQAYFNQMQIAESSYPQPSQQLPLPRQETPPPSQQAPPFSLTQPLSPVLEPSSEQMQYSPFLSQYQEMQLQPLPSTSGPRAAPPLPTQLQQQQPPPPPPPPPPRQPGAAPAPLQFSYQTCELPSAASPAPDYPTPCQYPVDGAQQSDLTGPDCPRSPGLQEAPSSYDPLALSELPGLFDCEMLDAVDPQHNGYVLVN
T13 sequence (P07947 whole entry): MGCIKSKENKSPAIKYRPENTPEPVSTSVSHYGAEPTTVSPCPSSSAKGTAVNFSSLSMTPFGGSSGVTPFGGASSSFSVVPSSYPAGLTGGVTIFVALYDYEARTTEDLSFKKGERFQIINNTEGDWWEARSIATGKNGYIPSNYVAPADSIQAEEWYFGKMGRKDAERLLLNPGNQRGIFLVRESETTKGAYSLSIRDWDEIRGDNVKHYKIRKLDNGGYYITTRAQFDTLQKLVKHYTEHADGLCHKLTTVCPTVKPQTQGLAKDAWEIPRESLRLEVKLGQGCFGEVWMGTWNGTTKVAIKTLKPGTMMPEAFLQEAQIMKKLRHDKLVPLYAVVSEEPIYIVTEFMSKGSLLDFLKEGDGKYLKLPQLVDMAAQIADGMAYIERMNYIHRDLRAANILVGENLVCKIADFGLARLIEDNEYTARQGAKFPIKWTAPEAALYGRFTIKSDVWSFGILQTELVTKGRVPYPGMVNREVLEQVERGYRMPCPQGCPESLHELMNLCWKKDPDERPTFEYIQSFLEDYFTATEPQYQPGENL

| SMILES | inhibition at 10 µM [1] [%] | inhibition at 10 µM [2] [%] | inhibition at 10 µM [3] [%] | inhibition at 10 µM [4] [%] | inhibition at 10 µM [5] [%] | inhibition at 10 µM [6] [%] | inhibition at 10 µM [7] [%] | inhibition at 10 µM [8] [%] | inhibition at 10 µM [9] [%] | inhibition at 10 µM [10] [%] | inhibition at 10 µM [11] [%] | inhibition at 10 µM [12] [%] | inhibition at 10 µM [13] [%] | inhibition at 10 µM [14] [%] |
| --- | --- | --- | --- | --- | --- | --- | --- | --- | --- | --- | --- | --- | --- | --- |
| COc1cc(Nc2nccc(-c3sc(N)nc3-c3cccc(NC(=O)c4c(F)cccc4F)c3)n2)cc(OC)c1OC [Compound 7] | 0 | 68.3 | 87.7 | 99.8 | 99.4 | 98.7 | 0 | 98.9 | 0 | 0 | 0 | 94.8 | 100 | 0 |
| C[C@@H](Oc1cc(-c2cnc3ccccn23)sc1C(N)=O)c1ccccc1Cl [Compound 8] | 0 | 0 | 0 | 100 | 0 | 0 | 0 | 0 | 0 | 0 | 0 | 0 | 0 | 0 |
| c1ccc(COc2cccc(-c3ccnc4[nH]ccc34)c2)cc1 [Compound 9] | 0 | 0 | 87.9 | 0 | 0 | 0 | 0 | 0 | 0 | 0 | 0 | 0 | 0 | 0 |
| Clc1ccc(Nc2ncc(-c3ccccc3)s2)cc1 [Compound 10] | 0 | 0 | 0 | 0 | 0 | 0 | 0 | 0 | 0 | 0 | 0 | 0 | 0 | 0 |
| Nc1ncc2c(-c3ccncc3)c[nH]c2n1 [Compound 11] | 0 | 79.6 | 0 | 75.5 | 0 | 0 | 0 | 75.9 | 0 | 0 | 0 | 0 | 66.2 | 0 |
